Reference: patent publication US6737383B1, “Herbicidal oxadiazolidines” (priority 1999, dated 2004)

Assays:
bedstraw = assay: Test B pre/postemergence bedstraw; format: in vivo, Galium aparine
Summary of the method: (§1)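 Test chemicals in a non-phytotoxic solvent mixture with surfactant were sprayed preemergence onto planted seeds and postemergence onto plants 2 to 18 cm tall (1- to 4-leaf stage). After twelve to sixteen days in a greenhouse, injury was visually rated against untreated controls from 0 (no effect) to 10 (complete control).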

blackgrass = assay: Test B pre/postemergence blackgrass; format: in vivo, Alopecurus myosuroides
Summary of the method: as §1

surinam grass = assay: Test B pre/postemergence surinam grass; format: in vivo, Brachiaria decumbens
Summary of the method: as §1

cocklebur = assay: Test B pre/postemergence cocklebur; format: in vivo, Xanthium strumarium
Summary of the method: as §1

corn = assay: Test B pre/postemergence corn; format: in vivo, Zea mays
Summary of the method: as §1

crabgrass = assay: Test B pre/postemergence crabgrass; format: in vivo, Digitaria sanguinalis
Summary of the method: as §1

giant foxtail = assay: Test B pre/postemergence giant foxtail; format: in vivo, Setaria faberii
Summary of the method: as §1

morningglory = assay: Test B pre/postemergence morningglory; format: in vivo, Ipomoea hederacea
Summary of the method: as §1

pigweed = assay: Test B pre/postemergence pigweed; format: in vivo, Amaranthus retroflexus
Summary of the method: as §1

rape = assay: Test B pre/postemergence rape; format: in vivo, Brassica napus
Summary of the method: as §1

soybean = assay: Test B pre/postemergence soybean; format: in vivo, Glycine max
Summary of the method: as §1

sugar beet = assay: Test B pre/postemergence sugar beet; format: in vivo, Beta vulgaris
Summary of the method: as §1

velvetleaf = assay: Test B pre/postemergence velvetleaf; format: in vivo, Abutilon theophrasti
Summary of the method: as §1

wheat = assay: Test B pre/postemergence wheat; format: in vivo, Triticum aestivum
Summary of the method: as §1

wild oat = assay: Test B pre/postemergence wild oat; format: in vivo, Avena fatua
Summary of the method: as §1

purple nutsedge = assay: Test B pre/postemergence purple nutsedge; format: in vivo, Cyperus rotundus
Summary of the method: as §1

[1] = Postemergence, Rate 62 g/ha, scale of 0 to 10, 0 is no effect, 10 is complete control
[2] = Postemergence, Rate 500 g/ha, scale of 0 to 10 where 0 is no effect and 10 is complete control
[3] = Preemergence, Rate 62 g/ha, scale 0 to 10 (0 no effect, 10 complete control)
[4] = Preemergence, Rate 125 g/ha, scale 0 to 10, 0 is no effect, 10 is complete control
[5] = Preemergence, Rate 500 g/ha, scale of 0 to 10 where 0 is no effect and 10 is complete control
[6] = Postemergence, Rate 125 g/ha, scale 0 to 10, 0 is no effect, 10 is complete control
[7] = Rate 250 g/ha, Postemergence, scale of 0 to 10 where 0 is no effect and 10 is complete control
[8] = Preemergence, Rate 62 g/ha, scale of 0 to 10 where 0 is no effect and 10 is complete control
[9] = Preemergence, Rate 250 g/ha, scale 0 to 10, 0 is no effect, 10 is complete control
[10] = Preemergence, Rate 500 g/ha, scale 0 to 10, 0 is no effect, 10 is complete control
[11] = Postemergence, Rate 250 g/ha, scale 0 to 10
[12] = Postemergence, Rate 500 g/ha, scale 0 to 10, 0 is no effect, 10 is complete control

## COCCOCn1c(=O)on(C(=O)N(c2ccccc2)C(C)C)c1=O [Compound 564]
bedstraw; [1]
  Bedstraw plant response rating: 0
bedstraw; [2]
  Plant response rating, Bedstraw: 0
bedstraw; [3]
  Bedstraw plant response rating: 0
bedstraw; [4]
  Bedstraw plant response rating: 0
bedstraw; Preemergence, Rate 250 g/ha
  Bedstraw plant response rating (0 to 10 scale): 0
bedstraw; [5]
  Bedstraw plant response rating: 0
blackgrass; [1]
  Blackgrass plant response rating: 0
blackgrass; [6]
  Blackgrass plant response rating: 4
blackgrass; [2]
  Plant response rating, Blackgrass: 4
blackgrass; [3]
  Blackgrass plant response rating: 0
blackgrass; [4]
  Blackgrass plant response rating: 5
blackgrass; Preemergence, Rate 250 g/ha
  Blackgrass plant response rating (0 to 10 scale): 5
blackgrass; [5]
  Blackgrass plant response rating: 9
blackgrass; [7]
  Plant response rating, Blackgrass: 4
Surinam grass; [1]
  B. signalgrass plant response rating: 0
Surinam grass; [2]
  Plant response rating, B. signalgrass: 8
Surinam grass; [3]
  B. signalgrass plant response rating: 2
Surinam grass; [4]
  B. signalgrass plant response rating: 6
Surinam grass; Preemergence, Rate 250 g/ha
  B. signalgrass plant response rating (0 to 10 scale, 0 is no effect, 10 is complete control): 6
Surinam grass; [5]
  B. signalgrass plant response rating: 7
Surinam grass; [7]
  Plant response rating, B. signalgrass: 3
cocklebur; [1]
  Cocklebur plant response rating: 0
cocklebur; [6]
  Cocklebur plant response rating: 0
cocklebur; [2]
  Plant response rating, Cocklebur: 2
cocklebur; [3]
  Cocklebur plant response rating: 0
cocklebur; [4]
  Cocklebur plant response rating: 0
cocklebur; Preemergence, Rate 250 g/ha
  Cocklebur plant response rating (0 to 10 scale): 0
cocklebur; [5]
  Cocklebur plant response rating: 0
cocklebur; [7]
  Plant response rating, Cocklebur: 0
corn; [1]
  Corn plant response rating: 0
corn; [6]
  Corn plant response rating: 0
corn; [2]
  Plant response rating, Corn: 6
corn; [3]
  Corn plant response rating: 2
corn; [4]
  Corn plant response rating: 4
corn; Preemergence, Rate 250 g/ha
  Corn plant response rating (0 to 10 scale): 4
corn; [5]
  Corn plant response rating: 9
corn; [7]
  Plant response rating, Corn: 0
crabgrass; [1]
  Crabgrass plant response rating: 2
crabgrass; [6]
  Crabgrass plant response rating: 3
crabgrass; [2]
  Plant response rating, Crabgrass: 9
crabgrass; [3]
  Crabgrass plant response rating: 7
crabgrass; [4]
  Crabgrass plant response rating: 8
crabgrass; Preemergence, Rate 250 g/ha
  Crabgrass plant response rating (0 to 10 scale): 9
crabgrass; [5]
  Crabgrass plant response rating: 9
crabgrass; [7]
  Plant response rating, Crabgrass: 8
Giant foxtail; [1]
  Giant foxtail plant response rating: 2
Giant foxtail; [6]
  Giant foxtail plant response rating: 3
Giant foxtail; [2]
  Plant response rating, Giant foxtail: 9
Giant foxtail; [3]
  Giant foxtail plant response rating: 9
Giant foxtail; [4]
  Giant foxtail plant response rating: 9
Giant foxtail; Preemergence, Rate 250 g/ha
  Giant foxtail plant response rating (0 to 10 scale): 9
Giant foxtail; [5]
  Giant foxtail plant response rating: 9
Giant foxtail; [7]
  Plant response rating, Giant foxtail: 7
morningglory; [1]
  Morningglory plant response rating: 5
morningglory; [6]
  Morningglory plant response rating: 7
morningglory; [2]
  Plant response rating, Morningglory: 10
morningglory; [3]
  Morningglory plant response rating: 0
morningglory; [4]
  Morningglory plant response rating: 2
morningglory; Preemergence, Rate 250 g/ha
  Morningglory plant response rating (0 to 10 scale): 2
morningglory; [5]
  Morningglory plant response rating: 4
morningglory; [7]
  Plant response rating, Morningglory: 10
pigweed; [1]
  Redroot pigweed plant response rating: 3
pigweed; [2]
  Plant response rating, Redroot pigweed: 3
pigweed; [3]
  Redroot pigweed plant response rating: 0
pigweed; [4]
  Redroot pigweed plant response rating: 0
pigweed; Preemergence, Rate 250 g/ha
  Redroot pigweed plant response rating (0 to 10 scale): 3
pigweed; [5]
  Redroot pigweed plant response rating: 3
pigweed; [7]
  Plant response rating, Redroot pigweed: 3
rape; [1]
  Rape plant response rating: 0
rape; [6]
  Rape plant response rating: 0
rape; [2]
  Plant response rating, Rape: 2
rape; [3]
  Rape plant response rating: 0
rape; [4]
  Rape plant response rating: 0
rape; Preemergence, Rate 250 g/ha
  Rape plant response rating (0 to 10 scale): 0
rape; [5]
  Rape plant response rating: 3
rape; [7]
  Plant response rating, Rape: 2
soybean; [1]
  Soybean plant response rating: 0
soybean; [2]
  Plant response rating, Soybean: 5
soybean; [3]
  Soybean plant response rating: 0
soybean; [4]
  Soybean plant response rating: 0
soybean; Preemergence, Rate 250 g/ha
  Soybean plant response rating (0 to 10 scale): 4
soybean; [5]
  Soybean plant response rating: 8
soybean; [7]
  Plant response rating, Soybean: 5
Sugar beet; [1]
  Sugarbeets plant response rating: 0
Sugar beet; [2]
  Plant response rating, Sugarbeets: 2
Sugar beet; [3]
  Sugarbeets plant response rating: 2
Sugar beet; [4]
  Sugarbeets plant response rating: 2
Sugar beet; Preemergence, Rate 250 g/ha
  Sugarbeets plant response rating (0 to 10 scale): 3
Sugar beet; [5]
  Sugarbeets plant response rating: 3
Sugar beet; [7]
  Plant response rating, Sugarbeets: 2
velvetleaf; [1]
  Velvetleaf plant response rating: 0
velvetleaf; [2]
  Plant response rating, Velvetleaf: 3
velvetleaf; [3]
  Velvetleaf plant response rating: 0
velvetleaf; [4]
  Velvetleaf plant response rating: 2
velvetleaf; Preemergence, Rate 250 g/ha
  Velvetleaf plant response rating (0 to 10 scale): 6
velvetleaf; [5]
  Velvetleaf plant response rating: 8
velvetleaf; [7]
  Plant response rating, Velvetleaf: 2
wheat; [1]
  Wheat plant response rating: 0
wheat; [2]
  Plant response rating, Wheat: 2
wheat; [3]
  Wheat plant response rating: 0
wheat; [4]
  Wheat plant response rating: 6
wheat; Preemergence, Rate 250 g/ha
  Wheat plant response rating (0 to 10 scale): 7
wheat; [5]
  Wheat plant response rating: 7
Wild oat; [1]
  Wild oats plant response rating: 0
Wild oat; [2]
  Plant response rating, Wild oats: 2
Wild oat; [3]
  Wild oats plant response rating: 0
Wild oat; [4]
  Wild oats plant response rating: 0
Wild oat; Preemergence, Rate 250 g/ha
  Wild oats plant response rating (0 to 10 scale): 4
Wild oat; [5]
  Wild oats plant response rating: 7
Purple nutsedge; [1]
  Nutsedge plant response rating: 0
Purple nutsedge; [2]
  Plant response rating, Nutsedge: 0
Purple nutsedge; [3]
  Nutsedge plant response rating: 0
Purple nutsedge; [4]
  Nutsedge plant response rating: 0
Purple nutsedge; [7]
  Plant response rating, Nutsedge: 0

## COCCOCn1c(=O)on(C(=O)N(c2ccc(F)cc2F)C(C)C)c1=O [Compound 505]
bedstraw; [8]
  Plant response rating, Bedstraw: 0
bedstraw; [4]
  Bedstraw plant response rating: 0
bedstraw; [9]
  Bedstraw plant response rating: 8
bedstraw; [10]
  Bedstraw plant response rating: 9
blackgrass; [1]
  Blackgrass plant response rating: 2
blackgrass; [6]
  Blackgrass plant response rating: 4
blackgrass; [11]
  Blackgrass plant response rating: 7
blackgrass; [12]
  Plant response rating, Blackgrass: 7
blackgrass; [8]
  Plant response rating, Blackgrass: 0
blackgrass; [4]
  Blackgrass plant response rating: 6
blackgrass; [9]
  Blackgrass plant response rating: 7
blackgrass; [5]
  Blackgrass plant response rating: 6
Surinam grass; [1]
  B. signalgrass plant response rating: 0
Surinam grass; [6]
  B. signalgrass plant response rating: 3
Surinam grass; Postemergence, Rate 250 g/ha, scale 0 to 10, 0 no effect, 10 complete control
  B. signalgrass plant response rating: 8
Surinam grass; [12]
  Plant response rating, B. signalgrass: 8
Surinam grass; [8]
  Plant response rating, B. signalgrass: 0
Surinam grass; [9]
  B. signalgrass plant response rating: 2
Surinam grass; [10]
  B. signalgrass plant response rating: 6
cocklebur; [1]
  Cocklebur plant response rating: 0
cocklebur; [6]
  Cocklebur plant response rating: 0
cocklebur; [11]
  Cocklebur plant response rating: 0
cocklebur; [12]
  Plant response rating, Cocklebur: 4
cocklebur; [8]
  Plant response rating, Cocklebur: 0
cocklebur; [4]
  Cocklebur plant response rating: 0
cocklebur; [9]
  Cocklebur plant response rating: 0
cocklebur; [5]
  Cocklebur plant response rating: 2
corn; [1]
  Corn plant response rating: 0
corn; [6]
  Corn plant response rating: 3
corn; [11]
  Corn plant response rating: 6
corn; [12]
  Plant response rating, Corn: 6
corn; [8]
  Plant response rating, Corn: 2
corn; [4]
  Corn plant response rating: 2
corn; [5]
  Corn plant response rating: 6
crabgrass; [1]
  Crabgrass plant response rating: 7
crabgrass; [6]
  Crabgrass plant response rating: 7
crabgrass; [11]
  Crabgrass plant response rating: 9
crabgrass; [12]
  Plant response rating, Crabgrass: 9
crabgrass; [4]
  Crabgrass plant response rating: 6
crabgrass; [5]
  Crabgrass plant response rating: 8
Giant foxtail; [1]
  Giant foxtail plant response rating: 8
Giant foxtail; [6]
  Giant foxtail plant response rating: 8
Giant foxtail; [12]
  Plant response rating, Giant foxtail: 9
Giant foxtail; [8]
  Plant response rating, Giant foxtail: 9
Giant foxtail; [4]
  Giant foxtail plant response rating: 9
Giant foxtail; [5]
  Giant foxtail plant response rating: 10
morningglory; [1]
  Morningglory plant response rating: 5
morningglory; [6]
  Morningglory plant response rating: 5
morningglory; [12]
  Plant response rating, Morningglory: 7
morningglory; [8]
  Plant response rating, Morningglory: 0
morningglory; [4]
  Morningglory plant response rating: 0
morningglory; [5]
  Morningglory plant response rating: 3
pigweed; [1]
  Redroot pigweed plant response rating: 0
pigweed; [6]
  Redroot pigweed plant response rating: 0
pigweed; [12]
  Plant response rating, Redroot pigweed: 9
pigweed; [8]
  Plant response rating, Redroot pigweed: 9
pigweed; [4]
  Redroot pigweed plant response rating: 10
pigweed; [5]
  Redroot pigweed plant response rating: 10
rape; [1]
  Rape plant response rating: 0
rape; [6]
  Rape plant response rating: 0
rape; [12]
  Plant response rating, Rape: 2
rape; [8]
  Plant response rating, Rape: 4
rape; [4]
  Rape plant response rating: 4
rape; [5]
  Rape plant response rating: 9
soybean; [1]
  Soybean plant response rating: 1
soybean; [6]
  Soybean plant response rating: 2
soybean; [12]
  Plant response rating, Soybean: 5
soybean; [8]
  Plant response rating, Soybean: 0
soybean; [4]
  Soybean plant response rating: 0
soybean; [5]
  Soybean plant response rating: 5
Sugar beet; [1]
  Sugarbeets plant response rating: 3
Sugar beet; [6]
  Sugarbeets plant response rating: 5
Sugar beet; [12]
  Plant response rating, Sugarbeets: 9
Sugar beet; [8]
  Plant response rating, Sugarbeets: 3
Sugar beet; [4]
  Sugarbeets plant response rating: 3
Sugar beet; [5]
  Sugarbeets plant response rating: 8
velvetleaf; [1]
  Velvetleaf plant response rating: 0
velvetleaf; [6]
  Velvetleaf plant response rating: 0
velvetleaf; [12]
  Plant response rating, Velvetleaf: 4
velvetleaf; [8]
  Plant response rating, Velvetleaf: 0
velvetleaf; [4]
  Velvetleaf plant response rating: 2
velvetleaf; [5]
  Velvetleaf plant response rating: 10
wheat; [1]
  Wheat plant response rating: 0
wheat; [6]
  Wheat plant response rating: 2
wheat; [12]
  Plant response rating, Wheat: 4
wheat; [8]
  Plant response rating, Wheat: 3
wheat; [4]
  Wheat plant response rating: 7
wheat; [5]
  Wheat plant response rating: 8
Wild oat; [1]
  Wild oats plant response rating: 0
Wild oat; [6]
  Wild oats plant response rating: 2
Wild oat; [12]
  Plant response rating, Wild oats: 3
Wild oat; [8]
  Plant response rating, Wild oats: 2
Wild oat; [4]
  Wild oats plant response rating: 2
Wild oat; [5]
  Wild oats plant response rating: 9
Purple nutsedge; [1]
  Nutsedge plant response rating: 0
Purple nutsedge; [6]
  Nutsedge plant response rating: 2
Purple nutsedge; [12]
  Plant response rating, Nutsedge: 2
Purple nutsedge; [8]
  Plant response rating, Nutsedge: 3
Purple nutsedge; [4]
  Nutsedge plant response rating: 10
Purple nutsedge; [5]
  Nutsedge plant response rating: 8
